In ChEMBL document CHEMBL5226341, “Discovery of a Potent FLT3 Inhibitor (LT-850-166) with the Capacity of Overcoming a Variety of FLT3 Mutations” (J Med Chem, 2021):
Active and inactive are the calls of the source. No cut-off for these calls is given here.

How the values were obtained:
[1] = system: THP-1; assay: Antiproliferative activity against human THP-1 cells assessed as reduction in cell viability measured after 72 hrs by CellTiterGlo luminescent assay; type: functional, cell-based; details: THP-1, 72 h
[2] = MRT (0 to t) in Sprague-Dawley rat at 1 mg/kg, iv measured for 24 hrs by LC-MS/MS analysis; type: ADME, organism-based; details: in vivo
[3] = Induction of cell cycle arrest in mouse HCD-57 cells at 100 nM incubated for 24 hrs by PI staining based flow cytometry; type: toxicity; details: hcd-57, 24 h, 0.1 µM
[4] = system: MOLM-13; assay: Antiproliferative activity against human MOLM-13 cells assessed as reduction in cell viability measured after 72 hrs by CellTiterGlo luminescent assay; type: functional, cell-based; details: MOLM-13, 72 h
[5] = system: MV4-11; assay: Induction of apoptosis in human MV4-11 cells assessed as viable cells at 100 nM incubated for 24 hrs by AnnexinV-FITC/PI staining based flow cytometry (reference value: 92.3%); type: functional; details: read-out: Activity
[6] = Toxicity in ICR mouse assessed as effect on animal's survival rate at 100 mg/kg, iv administered as single dose and measured for 14 days; type: organism-based; details: in vivo, 336 h, time 14 day
[7] = system: U-937; assay: Antiproliferative activity against human U-937 cells assessed as reduction in cell viability measured after 72 hrs by CellTiterGlo luminescent assay; type: functional, cell-based; details: U-937, 72 h
[8] = system: MV4-11; assay: Antitumor activity against human MV4-11 cells xenografted in BALB/c mouse assessed as tumor growth inhibition at 15 mg/kg, iv QD for 21 days by vernier caliper analysis; type: functional; details: MV4-11, 504 h, time 21 day, read-out: TGI
[9] = system: Receptor-type tyrosine-protein kinase FLT3 (Homo sapiens), P36888 [UNDEFINED MUTATION]; type: cell-based; details: BaF3, dose 0.1-100 nM, time 4.0 hrs
[10] = Ratio of IC50 for antiproliferative activity against mouse BaF3 cells harboring FLT3-ITD-N676D mutant to IC50 for antiproliferative activity against mouse BaF3 cells harboring FLT3-ITD mutant; type: functional
[11] = Toxicity in ICR mouse assessed as change in body weight at 100 mg/kg, iv administered as single dose and measured for 14 days; type: organism-based; details: in vivo, 336 h, time 14 day
[12] = system: MV4-11; assay: Induction of apoptosis in human MV4-11 cells assessed as viable cells at 50 nM incubated for 24 hrs by AnnexinV-FITC/PI staining based flow cytometry (reference value: 92.3%); type: functional; details: read-out: Activity
[13] = system: HCD-57; assay: Induction of cell cycle arrest in mouse HCD-57 cells harboring FLT3-ITD mutant at 100 nM incubated for 24 hrs by PI staining based flow cytometry; type: functional
[14] = system: A549; assay: Antiproliferative activity against human A549 cells assessed as reduction in cell viability measured after 72 hrs by CellTiterGlo luminescent assay; type: functional, cell-based; details: A549, 72 h
[15] = Antiproliferative activity against mouse HCD-57 cells assessed as reduction in cell viability measured after 72 hrs by CellTiterGlo luminescent assay; type: toxicity, cell-based; details: hcd-57, 72 h
[16] = Antiproliferative activity against mouse BaF3 cells assessed as reduction in cell viability measured after 72 hrs by CellTiterGlo luminescent assay; type: toxicity, cell-based
[17] = molecular target: Receptor-type tyrosine-protein kinase FLT3 (Homo sapiens) (UniProt P36888); assay: Inhibition of FLT3 in human MV4-11 cells assessed as inhibition of STAT5 phosphorylation at Tyr694 residue incubated for 4 hrs by western blot analysis; type: cell-based; details: dose 0.1-100 nM
[18] = Toxicity in BALB/c mouse xenografted with human MV4-11 cells assessed as granulocyte count at 15 mg/kg, iv for 21 days; type: organism-based; details: in vivo, 504 h, time 21 day
[19] = Half life in Sprague-Dawley rat at 10 mg/kg, po measured for 24 hrs by LC-MS/MS analysis; type: ADME, organism-based; details: in vivo
[20] = system: HCD-57; assay: Induction of apoptosis in mouse HCD-57 cells harboring FLT3-ITD mutant at 100 nM incubated for 24 hrs by AnnexinV-FITC/PI staining based flow cytometry; type: functional, cell-based
[21] = system: MV4-11; assay: Induction of cell cycle arrest in human MV4-11 cells assessed as proportion of cells at G1 phase at 50 nM incubated for 24 hrs by PI staining based flow cytometry (reference value: 56%); type: functional
[22] = Toxicity in BALB/c mouse xenografted with human MV4-11 cells assessed as morphological changes in liver at 15 mg/kg, iv for 21 days by H and E staining based analysis; type: organism-based; details: in vivo, 504 h, time 21 day
[23] = Toxicity in BALB/c mouse xenografted with human MV4-11 cells assessed as neutrophil count at 15 mg/kg, iv for 21 days; type: organism-based; details: in vivo, 504 h, time 21 day
[24] = molecular target: Receptor-type tyrosine-protein kinase FLT3 (Homo sapiens) (UniProt P36888); assay: Inhibition of FLT3 in human MV4-11 cells assessed as inhibition of STAT5 phosphorylation at Tyr694 residue at 10 nM incubated for 4 hrs by western blot analysis; type: cell-based
[25] = MRT (0 to t) in Sprague-Dawley rat at 10 mg/kg, po measured for 24 hrs by LC-MS/MS analysis; type: ADME, organism-based; details: in vivo
[26] = molecular target: Receptor-type tyrosine-protein kinase FLT3 (Homo sapiens) (UniProt P36888); assay: Inhibition of FLT3 in human MV4-11 cells assessed as inhibition of ERK phosphorylation at Thr202/Tyr204 residue incubated for 4 hrs by western blot analysis; type: cell-based; details: dose 0.1-100 nM
[27] = Toxicity in BALB/c mouse xenografted with human MV4-11 cells assessed as morphological changes in heart at 15 mg/kg, iv for 21 days by H and E staining based analysis; type: organism-based; details: in vivo, 504 h, time 21 day
[28] = system: MV4-11; assay: Antitumor activity against human MV4-11 cells xenografted in BALB/c mouse assessed as inhibition rate of tumor weight at 15 mg/kg, iv QD for 21 days by vernier caliper analysis; type: functional; details: MV4-11, 504 h, time 21 day
[29] = system: MV4-11; assay: Induction of apoptosis in human MV4-11 cells assessed as viable cells at 10 nM incubated for 24 hrs by AnnexinV-FITC/PI staining based flow cytometry (reference value: 92.3%); type: functional; details: read-out: Activity
[30] = Half-life in Sprague-Dawley rat at 1 mg/kg, iv measured for 24 hrs by LC-MS/MS analysis; type: ADME, organism-based; details: in vivo
[31] = system: BaF3; assay: Antiproliferative activity against mouse BaF3 cells harboring FLT3-ITD mutant assessed as reduction in cell viability measured after 72 hrs by CellTiterGlo luminescent assay; type: functional, cell-based; details: BaF3, 72 h
[32] = molecular target: Receptor-type tyrosine-protein kinase FLT3 (Homo sapiens) (UniProt P36888); assay: Inhibition of FLT3 in human MV4-11 cells assessed as inhibition of FLT3 phosphorylation at Tyr589/591 residue incubated for 4 hrs by western blot analysis; type: cell-based; details: dose 0.1-100 nM
[33] = Cmax in Sprague-Dawley rat at 10 mg/kg, po measured for 24 hrs by LC-MS/MS analysis; type: ADME, organism-based; parameters: time 24 hrs, dose 10 mg/kg, route po; details: in vivo
[34] = Toxicity in ICR mouse assessed as behavioural changes at 100 mg/kg, iv administered as single dose and measured for 14 days; type: organism-based; details: in vivo, 336 h, time 14 day
[35] = Toxicity in BALB/c mouse xenografted with human MV4-11 cells assessed as white blood cell count at 15 mg/kg, iv for 21 days; type: organism-based; details: in vivo, 504 h, time 21 day
[36] = system: MDA-MB-231; assay: Antiproliferative activity against human MDA-MB-231 cells assessed as reduction in cell viability measured after 72 hrs by CellTiterGlo luminescent assay; type: functional, cell-based; details: MDA-MB-231, 72 h
[37] = AUC (0 to t) in Sprague-Dawley rat at 1 mg/kg, iv measured for 24 hrs by LC-MS/MS analysis; type: ADME, organism-based; parameters: dose 1 mg/kg, time 24 hrs, route iv; details: in vivo

Receptor-type tyrosine-protein kinase FLT3 (Homo sapiens), sequence (P36888 whole entry): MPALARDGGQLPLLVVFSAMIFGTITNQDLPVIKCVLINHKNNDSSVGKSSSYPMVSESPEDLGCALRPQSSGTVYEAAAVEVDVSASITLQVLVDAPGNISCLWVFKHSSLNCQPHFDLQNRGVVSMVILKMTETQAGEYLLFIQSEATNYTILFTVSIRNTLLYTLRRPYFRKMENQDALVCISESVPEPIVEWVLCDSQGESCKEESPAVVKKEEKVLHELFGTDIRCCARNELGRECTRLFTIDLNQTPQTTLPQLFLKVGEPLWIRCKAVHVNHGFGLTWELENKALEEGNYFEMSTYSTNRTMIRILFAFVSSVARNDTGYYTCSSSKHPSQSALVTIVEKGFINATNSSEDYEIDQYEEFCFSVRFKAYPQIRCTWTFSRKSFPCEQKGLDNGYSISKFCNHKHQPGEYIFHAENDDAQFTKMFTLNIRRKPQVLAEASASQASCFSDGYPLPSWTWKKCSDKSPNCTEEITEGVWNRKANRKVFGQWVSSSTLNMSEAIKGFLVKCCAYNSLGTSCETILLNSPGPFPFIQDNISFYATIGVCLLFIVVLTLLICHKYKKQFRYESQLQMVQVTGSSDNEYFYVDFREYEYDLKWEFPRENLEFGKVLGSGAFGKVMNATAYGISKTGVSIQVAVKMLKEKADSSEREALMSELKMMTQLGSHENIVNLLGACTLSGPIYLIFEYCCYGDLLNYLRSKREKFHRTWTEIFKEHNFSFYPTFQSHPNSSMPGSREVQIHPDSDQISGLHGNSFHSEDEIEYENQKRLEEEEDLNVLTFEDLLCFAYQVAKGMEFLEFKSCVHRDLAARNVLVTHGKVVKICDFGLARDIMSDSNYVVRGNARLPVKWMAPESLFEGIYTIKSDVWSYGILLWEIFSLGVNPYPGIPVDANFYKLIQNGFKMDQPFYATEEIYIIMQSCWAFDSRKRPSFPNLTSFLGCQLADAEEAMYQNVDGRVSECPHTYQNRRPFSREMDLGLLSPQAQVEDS
Receptor-type tyrosine-protein kinase FLT3 (Homo sapiens), P36888 [UNDEFINED MUTATION], sequence (P36888 whole entry, looked up, stated change not applied): as the sequence (P36888 whole entry) above

CCN1CCN(c2ccc(C(=O)Nc3cc(-c4ccc5ncn(Cc6c(Cl)cccc6Cl)c5c4)[nH]n3)cc2)CC1
IC50 [1]: > 5 µM | MRT last at 24 h [2]: 1.96 h | Activity [3]: Non-Toxic | IC50 [4]: 0.00985 µM | viability at 0.1 µM [5]: 59.7% | Activity [6]: Non-Toxic | IC50 [7]: > 2 µM | inhibition in vivo at 15 mg/kg [8]: 99.5% | inhibition [9]: Dose-Dependent Effect | Ratio IC50 [10]: 5.58 | Activity [11]: Non-Toxic | viability at 0.05 µM [12]: 61.5% | Activity [13]: Active | IC50 [14]: 3.66 µM | Activity [15]: Non-Toxic | IC50 at 72 h [16]: 4.09 µM | inhibition [17]: Dose-Dependent Effect | Activity [18]: Non-Toxic | half-life [19]: 3.58 h | Activity [20]: Active | Activity [21]: 88.1% | Activity [22]: Non-Toxic | Activity [23]: Non-Toxic | inhibition [24]: 100% | MRT last at 24 h [25]: 3.63 h | inhibition [26]: Dose-Dependent Effect | Activity [27]: Non-Toxic | inhibition in vivo at 15 mg/kg [28]: 82.7% | viability at 0.01 µM [29]: 67.9% | half-life [30]: 2.25 h | IC50 [31]: 0.0076 µM | inhibition [32]: Dose-Dependent Effect | Cmax [33]: 9.31 ng/mL | Activity [34]: Non-Toxic | Activity [35]: Non-Toxic | IC50 [36]: 3.85 µM | AUC(0-t) at 24 h [37]: 0.391 µg·h/mL
